The target in series [1] is T1, Aurora kinase A (Homo sapiens, UniProt O14965).
T1 sequence (O14965 whole entry): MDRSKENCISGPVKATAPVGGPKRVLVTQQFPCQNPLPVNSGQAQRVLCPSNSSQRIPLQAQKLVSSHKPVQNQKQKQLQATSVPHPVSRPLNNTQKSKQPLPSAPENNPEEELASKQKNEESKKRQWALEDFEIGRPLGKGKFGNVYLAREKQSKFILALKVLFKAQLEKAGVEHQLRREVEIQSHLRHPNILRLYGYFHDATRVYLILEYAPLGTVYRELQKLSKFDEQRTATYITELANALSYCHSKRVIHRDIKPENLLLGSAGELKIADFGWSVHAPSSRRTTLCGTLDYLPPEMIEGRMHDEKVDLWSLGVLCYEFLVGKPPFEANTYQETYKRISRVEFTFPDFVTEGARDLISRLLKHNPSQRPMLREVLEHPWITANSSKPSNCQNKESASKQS
Kind of series: Inhibition of Aurora A (unknown origin) using recombinant Lats2-N-ter as substrate incubated in the presence of ATP.

The test system of series [2] is A549. Description: Antiproliferative activity against human A549 cells incubated for 72 hrs by MTT assay. The series is classed as functional, cell-based. To be noted: A549, 72 h.
The target in series [3] is T1, Aurora kinase A. Description: Inhibition of human Aurora A using LeuArgArgAlaSerLeuGly as substrate.
Series [4] is described as follows: Inhibition of Aurora B (unknown origin) using Ulight-PLK (Ser137) as substrate incubated for 60 mins by FRET-based Lance Ultra Kinase assay. Details: species or system Homo sapiens.
The subject of series [5] is HCT-116. Kind of series: Antiproliferative activity against human HCT-116 cells incubated for 48 hrs by SRB assay. The series is classed as functional, cell-based. To be noted: HCT-116, 48 h. For orientation: Sulforhodamine B stains cellular protein and so reports cell mass.
Series [6] has as its system A2780. Kind of series: Antiproliferative activity against human A2780 cells incubated for 48 hrs by SRB assay. The series is classed as functional, cell-based. To be noted: A2780, 48 h.
In series [7] the test system is HepG2. Kind of series: Antiproliferative activity against human HepG2 cells incubated for 48 hrs by SRB assay. It is filed as functional, cell-based. The settings on record: HepG2, 48 h.
Series [8] relates to HepG2. Description: Antiproliferative activity against human HepG2 cells. It is filed as functional, cell-based.
The test system of series [9] is HCT-116. Description: Anticancer activity against human HCT-116 cells assessed as cell growth inhibition measured after 7 days by crystal violet staining based clonogenic long-term survival assay. The series is classed as functional. To be noted: HCT-116, 168 h, time 7 day.
In series [10] the target is T2, Aurora kinase A (Homo sapiens) (UniProt O14965).
T2 sequence (whole entry): T1 sequence (O14965 whole entry)
Description: Inhibition of Aurora kinase A (unknown origin) using LeuArgArgAlaSerLeuGly as substrate at 10 uM incubated in presence of ATP relative to control.

The test system of series [11] is MCF7. Kind of series: Antiproliferative activity against human MCF7 cells incubated for 72 hrs by alamar blue cell viability assay. It is filed as functional, cell-based. The settings on record: MCF7, 72 h. For orientation: Alamar Blue is a resazurin reagent that responds to reducing activity.
Series [12] has as its system MDA-MB-231. Kind of series: Antiproliferative activity against human MDA-MB-231 cells incubated for 72 hrs by alamar blue cell viability assay. The series is classed as functional, cell-based. The settings on record: MDA-MB-231, 72 h.
For series [13], the system named is SK-OV-3. Description: Antiproliferative activity against human SK-OV-3 cells incubated for 72 hrs by alamar blue cell viability assay. The settings on record: SK-OV-3, 72 h. The series is classed as functional, cell-based.
Series [14] deals with A-375. Description: Antiproliferative activity against human A-375 cells incubated for 72 hrs by alamar blue cell viability assay. The settings on record: A-375, 72 h. The series is classed as functional, cell-based.
The subject of series [15] is A549. Kind of series: Antiproliferative activity against human A549 cells incubated for 72 hrs by alamar blue cell viability assay. It is filed as functional, cell-based. To be noted: A549, 72 h.
Series [16] is described as follows: Oral bioavailability in mouse at 10 mg/kg. The series is classed as ADME, organism-based. To be noted: in vivo.
In series [17] the target is T1, Aurora kinase A. Kind of series: Inhibition of N-terminal GST tagged Aurora A (unknown origin) expressed in recombinant baculovirus-infected Sf9 cells using tetra(LRRWSLG) as substrate preincubated for 15 mins followed by the addition of substrate for 90 mins in the presence of ATP by Kinase-Glo Plus reagent based luminescence assay. Background: Kinase-Glo reads ATP consumption through a luciferase reaction.

The test system of series [18] is HCT-116. Kind of series: Antiproliferative activity against human HCT-116 cells by MTT assay.

In brackets after ≈: the same amount, converted by molar mass.

As usually defined, the IC50 is the concentration that gives 50% inhibition. As for `C=CCn1c(C)nc2ccc(Nc3nc(N4CCN(C)CC4)nc4ccccc34)cc21`, in series [1], the IC50 came out at 35 nM.
`O=C(N/N=C/c1coc2ccccc2c1=O)c1ccc(F)cc1`: the concentration for half-maximal inhibition (IC50) in [2] and in series [3] was 1140 nM throughout.
Molecule `CN1CCN(c2ccc(Nc3ncc(F)c(N4CCN(C)c5cc(F)ccc5C4)n3)cc2)CC1` returned an IC50 in series [4] of 7 nM.
For the molecule `NC1=C(C(=O)Nc2ccc(-c3nc4ccccc4[nH]3)cc2)C(c2ccc([N+](=O)[O-])cc2)N2C=CSC2N1` (stereo unspecified), the half-maximal inhibitory concentration (IC50) in series [5] was found to be 1320 nM; in [6], 3.5 µM; in [7], 2340 nM.
For `COc1ccc(-c2cc(-c3nnn(-c4ccc(Br)cc4)c3C)nc(N)c2C#N)cc1`, half-maximal inhibition in series [8] (IC50) was put at 2.34 µg/mL (≈ 5.07 µM).
Still for that read-out and setting: as for `Cc1c(-c2cc(-c3cn(-c4ccccc4)nc3-c3nnn(-c4ccc(Br)cc4)c3C)c(C#N)c(N)n2)nnn1-c1ccc(Br)cc1`, the figure is 0.64 µg/mL (≈ 0.873 µM).
Consider `CC(=O)N1CCN(c2ccc(Nc3ncc(F)c(N4CCN(C)c5cc(F)ccc5C4)n3)cc2)CC1`, for which, in [4], inhibition was half-maximal at 9 nM (IC50).
`COc1ccccc1C1C(C(=O)Nc2ccc(-c3nc4ccccc4[nH]3)cc2)=C(N)NC2SC=CN21` (stereo unspecified): the concentration for half-maximal inhibition (IC50) in [5] is 1200 nM; in [6], 3.1 µM; in [7] it was 2110 nM.
By GI50 is commonly meant the concentration giving 50% growth inhibition. Broadly, the inhibition is the drop in the measured response relative to a control, in per cent. Turning to `COc1ccc(-c2cc(-c3ccccc3O)nc(N)n2)c(OC)c1`, the GI50 in [9] turned out to be 1450 nM. Also, in [10], the inhibition is 95%.
Broadly, the bioavailability is the share of a dose that reaches the circulation, judged against a reference dose that is usually intravenous. A higher bioavailability goes with much systemic uptake. `CN1CCN(c2nc(Nc3ccc(S(N)(=O)=O)cc3)ncc2F)Cc2ccc(F)cc21`: the 50% inhibitory concentration (IC50) worked out at 8 nM in [4]; 570 nM in series [11]; 420 nM in series [12]; 690 nM in [13]; 3.97 µM in [14]; 1530 nM in series [15]. This molecule showed a bioavailability in series [16] of 73%.
For `COc1cc2ncnc(NCCc3ccc(NC(=O)Nc4ccccc4)cc3)c2cc1OC`, the 50% inhibitory concentration (IC50) in [17] worked out at 25 nM; in series [18], 23 nM.
Molecule `COc1cccc2c1C(=O)c1c(O)c3c(c(O)c1C2=O)C[C@@](O)(C(=O)CO)C[C@@H]3O[C@H]1C[C@H](N)[C@H](O)[C@H](C)O1` [DOXORUBICIN] registered a 50% inhibitory concentration (IC50) in series [8] of 3.56 µg/mL (≈ 6.55 µM).
Turning to `Cc1c(-c2cc(-c3cn(-c4ccccc4)nc3-c3nnn(-c4cccc([N+](=O)[O-])c4)c3C)c(C#N)c(N)n2)nnn1-c1ccc(Br)cc1`, the IC50 in series [8] worked out at 1.08 µg/mL (≈ 1.54 µM).

Source of the values: ChEMBL document CHEMBL5096182, “Aurora kinase inhibitors as potential anticancer agents: Recent advances” (Eur J Med Chem, 2021).
